In the experiment the target is human PDE2A1 (Homo sapiens (Human), UniProt O00408). Nature of the experiment: PDE selectivity IMAP FP assay, human PDE2A1. It is filed as biochemical. The following applies: Human PDE2; Lab B; read-out: Human PDE2 Ki (nM) Lab B. In a few lines: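 IMAP fluorescence polarization assay; PDE2 substrate 50 nM FAM-cAMP containing 1000 nM cGMP, enzyme diluted for 20% substrate conversion, in 10 mM Tris HCl pH 7.2, 10 mM MgCl2, 1 mM DTT. Reaction 60 min at room temperature, stopped with IMAP binding solution; polarization read after 1 h. Ki reported.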
Sequence of human PDE2A1 (O00408 other isoform, or with tags, fused parts or gaps): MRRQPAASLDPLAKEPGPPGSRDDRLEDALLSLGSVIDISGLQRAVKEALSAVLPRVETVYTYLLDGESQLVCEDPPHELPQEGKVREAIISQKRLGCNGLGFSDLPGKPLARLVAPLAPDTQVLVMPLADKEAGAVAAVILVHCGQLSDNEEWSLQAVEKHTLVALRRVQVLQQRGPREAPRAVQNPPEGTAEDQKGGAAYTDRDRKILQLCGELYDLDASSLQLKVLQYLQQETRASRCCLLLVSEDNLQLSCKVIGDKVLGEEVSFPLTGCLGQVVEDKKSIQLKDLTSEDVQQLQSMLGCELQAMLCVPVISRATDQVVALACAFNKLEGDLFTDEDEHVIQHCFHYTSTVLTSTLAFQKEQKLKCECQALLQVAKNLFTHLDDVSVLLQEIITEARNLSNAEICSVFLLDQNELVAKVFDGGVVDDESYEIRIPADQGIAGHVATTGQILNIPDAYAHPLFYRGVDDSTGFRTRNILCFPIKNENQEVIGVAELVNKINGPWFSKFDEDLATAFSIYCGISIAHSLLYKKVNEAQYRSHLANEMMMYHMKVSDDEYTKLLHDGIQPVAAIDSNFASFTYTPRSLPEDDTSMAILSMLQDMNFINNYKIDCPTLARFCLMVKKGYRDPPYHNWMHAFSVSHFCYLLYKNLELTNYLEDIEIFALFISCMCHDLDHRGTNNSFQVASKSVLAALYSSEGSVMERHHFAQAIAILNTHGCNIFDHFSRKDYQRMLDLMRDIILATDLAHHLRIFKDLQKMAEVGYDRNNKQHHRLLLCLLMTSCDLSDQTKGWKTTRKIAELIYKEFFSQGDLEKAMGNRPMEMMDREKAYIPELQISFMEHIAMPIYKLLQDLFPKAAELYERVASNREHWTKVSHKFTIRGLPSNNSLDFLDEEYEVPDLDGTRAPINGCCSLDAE

What is called Ki is a dissociation constant, usually derived from enzyme kinetics or from competition with a known ligand.

For the compound `CC(c1ccc(C(F)(F)F)c(F)c1)n1nc(C(F)(F)F)c2c(=O)[nH]c(O)nc21` (single isomer, unassigned) [Example 313, (R)- or (S)-1-{1-[3-Fluoro-4-(trifluoromethyl)phenyl]ethyl}-6-hydroxy-3-(trifluoromethyl)-1,5-dihydro-4H-pyrazolo[3,4-d]pyrimidin-4-one], the Ki amounted to 2.2 nM.

As to `CC(c1ccc(C(F)F)c(F)c1)n1nc(CF)c2c(=O)[nH]c(N(C)C)nc21` (single isomer, unassigned) [Example 197, (S)- or (R)-1-(1-(4-(Difiuoromethyl)-3-fluorophenyl)ethyl)-6-(dimethylamino)-3-(fluoromethyl)-1H-pyrazolo[3,4-d]pyrimidin-4(5H)-one], the Ki came to 18 nM.

With `CC(c1ccc(OC(F)(F)F)cc1F)n1nc(C(F)(F)F)c2c(=O)[nH]c(O)nc21` (single isomer, unassigned) [Example 307, (R)- or (S)-1-{1-[2-Fluoro-4-(trifluoro-methoxy)phenyl]ethyl}-6-hydroxy-3-(trifluoromethyl)-1,5-dihydro-4H-pyrazolo-[3,4-d]pyrimidin-4-one], the Ki turned out to be 10 nM.

As for `CC(c1ccc(C(F)F)cc1)n1nc(CF)c2c(=O)[nH]c(N(C)C)nc21` (single isomer, unassigned) [Example 190, (R)- or (S)-1-(1-(4-(Difluoromethyl)phenyl)ethyl)-6-(dimethylamino)-3-(fluoromethyl)-1H-pyrazolo[3,4-d]pyrimidin-4(5H)-one], the Ki worked out at 27 nM.

As to `CC(C)C(c1ccc(CC(F)(F)F)cc1)n1nc(CO)c2c(=O)[nH]c(N(C)C)nc21` (single isomer, unassigned) [Example 89, (S)- or (R)-6-(Dimethylamino)-3-(hydroxymethyl)-1-(2-methyl-1-(4-(2,2,2-trifluoroethyl)phenyl)propyl)-1H-pyrazolo[3,4-d]pyrimidin-4(5H)-one], the Ki was 0.21 nM.

In the case of `CC(C)(C)C(c1ccc(C(F)(F)F)cc1)n1nc(C(F)(F)F)c2c(=O)[nH]c(O)nc21` (single isomer, unassigned) [Example 338, (S)- or (R)-1-(2,2-Dimethyl-1-(4-(trifluoromethyl)phenyl)propyl)-6-hydroxy-3-(trifluoromethyl)-1H-pyrazolo[3,4-d]pyrimidin-4(5H)-one], the Ki was 373 nM.

As to `CC(c1ccc(C(F)(F)F)cc1F)n1nc(CO)c2c(=O)[nH]c(N(C)C)nc21` (single isomer, unassigned) [Example 80, (R)- or (S)-6-(Dimethylamino)-1-(1-(2-fluoro-4-(trifluoromethyl)phenyl)ethyl)-3-(hydroxymethyl)-1H-pyrazolo[3,4-d]pyrimidin-4(5H)-one], the Ki turned out to be 25 nM.

As to `C[C@@H](c1ccc(C(F)(F)F)cc1)n1nc(C(F)(F)F)c2c(=O)[nH]c(N(C)C)nc21` [Example 339, (S)-6-(Dimethylamino)-3-(trifluoromethyl)-1-(1-(4-(trifluoromethyl)phenyl)ethyl)-1H-pyrazolo[3,4-d]pyrimidin-4(5H)-one], the Ki came out at 2.1 nM.

In the case of `CSc1nc2c(c(CO)nn2[C@@H](C)c2ccc(C(F)(F)F)cc2)c(=O)[nH]1` [Example 301, (S)-3-(Hydroxymethyl)-6-(methylthio)-1-(1-(4-(trifluoromethyl)phenyl)ethyl)-1H-pyrazolo[3,4-d]pyrimidin-4(5H)-one], the Ki was found to be 1.8 nM.

Turning to `CCC(c1ccc(C(F)F)cc1F)n1nc(CF)c2c(=O)[nH]c(N(C)C)nc21` (single isomer, unassigned) [Example 348, (R)- or (S)-1-(1-(4-(difluoromethyl)-2-fluorophenyl)propyl)-6-(dimethylamino)-3-(fluoromethyl)-1H-pyrazolo[3,4-d]pyrimidin-4(5H)-one], the Ki stood at 0.03 nM.

On to `CC(c1ccc(C(C)(F)F)cc1F)n1nc(CO)c2c(=O)[nH]c(N(C)C)nc21` (single isomer, unassigned) [Example 109, (S)- or (R)-1-(1-(4-(1,1-Difluoroethyl)-2-fluorophenyl)ethyl)-6-(dimethylamino)-3-(hydroxymethyl)-1H-pyrazolo[3,4-d]pyrimidin-4(5H)-one], for which the Ki was found to be 8 nM.

`CC(c1ccc(C(C)(C)C)cc1)n1nc(CO)c2c(=O)[nH]c(N(C)C)nc21` (single isomer, unassigned) [Example 67, (S)- or (R)-1-(1-(4-tert-Butylphenyl)ethyl)-6-(dimethylamino)-3-(hydroxymethyl)-1H-pyrazolo[3,4-d]pyrimidin-4(5H)-one]: the Ki was found to be 0.25 nM.

As to `C=CC(c1ccc(C(F)(F)F)cc1)n1nc(C(F)(F)F)c2c(=O)[nH]c(O)nc21` (stereo not drawn) [Example 355, 6-Hydroxy-3-(trifluoromethyl)-1-(1-(4-(trifluoromethyl)phenyl)allyl)-1H-pyrazolo[3,4-d]pyrimidin-4(5H)-one], the Ki stood at 284 nM.

As for `CCC(c1ccc(C(C)(F)F)cc1F)n1nc(CO)c2c(=O)[nH]c(N(C)C)nc21` (single isomer, unassigned) [Example 110, (R)- or (S)-1-(1-(4-(1,1-Difluoroethyl)-2-fluorophenyl)propyl)-6-(dimethylamino)-3-(hydroxymethyl)-1H-pyrazolo[3,4-d]pyrimidin-4(5H)-one], the Ki was 2.8 nM.

In the case of `CC(c1ccc(OC(F)F)c(F)c1)n1nc(C(F)(F)F)c2c(=O)[nH]c(O)nc21` (single isomer, unassigned) [Example 323, (R)- or (S)-1-(1-(4-(Difluoromethoxy)-3-fluorophenyl)ethyl)-6-hydroxy-3-(trifluoromethyl)-1H-pyrazolo[3,4-d]pyrimidin-4(5H)-one], the Ki is 304 nM.

Regarding `CN(C)c1nc2c(c(CO)nn2C(c2ccc(C(C)(F)F)cc2F)C2CC2)c(=O)[nH]1` (single isomer, unassigned) [Example 353, (S)- or (R)-1-(Cyclopropyl(4-(1,1-difluoroethyl)-2-fluorophenyl)methyl)-6-(dimethylamino)-3-(hydroxymethyl)-1H-pyrazolo[3,4-d]pyrimidin-4(5H)-one], the Ki came to 0.05 nM.

Regarding `CCC(c1ccc(C(F)(F)F)cc1)n1nc(CF)c2c(=O)[nH]c(N(C)C)nc21` (single isomer, unassigned) [Example 172, (R)- or (S)-6-(Dimethylamino)-3-(fluoromethyl)-1-(1-(4-(trifluoromethyl)phenyl)propyl)-1H-pyrazolo[3,4-d]pyrimidin-4(5H)-one], the Ki worked out at 2.2 nM.

Turning to `CCC(c1ccc(C(F)F)c(F)c1)n1nc(CF)c2c(=O)[nH]c(N(C)C)nc21` (single isomer, unassigned) [Example 345, (S)- or (R)-1-(1-(4-(Difluoromethyl)-3-fluorophenyl)propyl)-6-(dimethylamino)-3-(fluoromethyl)-1H-pyrazolo[3,4-d]pyrimidin-4(5H)-one], the Ki was 0.13 nM.

On to `CC1(C(c2ccc(C(F)(F)F)c(F)c2)n2nc(CC(F)(F)F)c3c(=O)[nH]c(O)nc32)CC1` (single isomer, unassigned) [Example 249, (S)- or (R)-1-((3-Fluoro-4-(trifluoromethyl)phenyl)(1-methylcyclopropyl)methyl)-6-hydroxy-3-(2,2,2-trifluoroethyl)-1H-pyrazolo[3,4-d]pyrimidin-4(5H)-one], for which the Ki turned out to be 841 nM.

Take `CC(C)C(c1ccc(C(C)(F)F)cc1)n1nc(CO)c2c(=O)[nH]c(N)nc21` (single isomer, unassigned) [Example 357]: the Ki is 19 nM.

Consider `CCC(c1ccc(C(F)F)cc1F)n1nc(CF)c2c(=O)[nH]c(N(C)C)nc21` (single isomer, unassigned) [Example 349, (S)- or (R)-1-(1-(4-(difluoromethyl)-2-fluorophenyl)propyl)-6-(dimethylamino)-3-(fluoromethyl)-1H-pyrazolo[3,4-d]pyrimidin-4(5H)-one], for which the Ki was 4 nM.

Regarding `CCC(c1ccc(OC(F)F)cc1F)n1nc(CF)c2c(=O)[nH]c(N(C)C)nc21` (single isomer, unassigned) [Example 343, (S)- or (R)-1-(1-(4-(Difluoromethoxy)-2-fluorophenyl)propyl)-6-(dimethylamino)-3-(fluoromethyl)-1H-pyrazolo[3,4-d]pyrimidin-4(5H)-one], the Ki is 1.7 nM.

Take `CC(c1ccc(C(C)(F)F)cc1)n1nc(CF)c2c(=O)[nH]c(N(C)C)nc21` (single isomer, unassigned) [Example 194, (R)- or (S)-1-(1-(4-(1,1-Difluoroethyl)phenyl)ethyl)-6-(dimethylamino)-3-(fluoromethyl)-1H-pyrazolo[3,4-d]pyrimidin-4(5H)-one]: the Ki worked out at 6.1 nM.

On to `CCC(c1ccc(OC(F)F)cc1)n1nc(CO)c2c(=O)[nH]c(N(C)C)nc21` (single isomer, unassigned) [Example 125, (S)- or (R)-1-(1-(4-(Difluoromethoxy)phenyl)propyl)-6-(dimethylamino)-3-(hydroxymethyl)-1H-pyrazolo[3,4-d]pyrimidin-4(5H)-one], for which the Ki was 2.4 nM.

As for `CC(c1ccc(C(C)(F)F)cc1F)n1nc(CF)c2c(=O)[nH]c(N(C)C)nc21` (single isomer, unassigned) [Example 208, (R)- or (S)-1-(1-(4-(1,1-Difluoroethyl)-2-fluorophenyl)ethyl)-6-(dimethylamino)-3-(fluoromethyl)-1H-pyrazolo[3,4-d]pyrimidin-4(5H)-one], the Ki worked out at 20 nM.

Turning to `CC(c1ccc(C(F)(F)C(F)(F)F)cc1)n1nc(CO)c2c(=O)[nH]c(O)nc21` (single isomer, unassigned) [Example 31, (R)- or (S)-6-Hydroxy-3-(hydroxymethyl)-1-(1-(4-(perfluoroethyl)phenyl)ethyl)-1H-pyrazolo[3,4-d]pyrimidin-4(5H)-one], the Ki was 50 nM.

In the case of `CC(c1ccc(S(F)(F)(F)(F)F)cc1)n1nc(C(F)(F)F)c2c(=O)[nH]c(O)nc21` (single isomer, unassigned) [Example 311, (R)- or (S)-6-Hydroxy-1-{1-[4-(pentafluoro-lambda~6-sulfanyl)phenyl]ethyl}-3-(trifluoromethyl)-1,5-dihydro-4H-pyrazolo[3,4-d]pyrimidin-4-one], the Ki was 4.9 nM.

The record behind these values is patent publication US10174037B2, “Dihydropyrazolopyrimidinone compounds as PDE2 inhibitors” (Merck Sharp & Dohme Corp., priority 2015, dated 2019).
